Assay results published in patent US9272038B2, “Wound care formulation” (Innovation Ulster Limited, priority 2007, dated 2016).
Structures can show the parent of a compound that is named as a salt.

Tests used:
Format in all cases: physicochemical
[1] = pH measurement of PVA-borate hydrogels (spear-tip electrode); details: 10% w/w PVA and 2.5% w/w borax hydrogel, n=4
Description: PVA-borate hydrogels (10% w/w PVA and 2.5% w/w borax) were prepared by combining equal volumes of separate stock solutions (20% w/w PVA and 5% w/w borax) prepared in de-ionised water. A homogenous gel was formed upon heating the mixture to 80° C. for approximately two hours, with periodic stirring. Gels were stored for 48 hours at room temperature to allow complete gelation prior to evaluation. Excipients, such as lidocaine HCL and D-mannitol, were added to the sodium tetraborate solution prior to addition to the PVA solution. The pH of gel formulations were recorded using a Sensorex® spear-tip electrode ([…], Sensys Ltd, Stevenage), which is designed to penetrate and measure the pH of semi-solid systems. Measurements of pH in borax solutions (5% w/v), following successive additions of D-mannitol (5.0×10^-3 mole), were recorded using the same electrode apparatus. Additionally, the effect of the polyols on the concentration of free borate ions within the hydrogel was estimated using changes in the pH of the gel after addition of a defined polyol. Standard hydrogels of 10% w/w PVA and 2.5% borax were produced containing each polyol at a concentration of 0.1 Molar. The pH of each gel was measured upon equilibration, with each measurement performed for four samples (n=4). Similarly, the changes in gel hardness arising from variations in free borate induced by polyol addition were determined using texture profile analysis, as described above. As before, four replicate measurements were made in each case at ambient temperature (n=4).

[2] = Texture profile analysis (hardness) of PVA-borate hydrogels; details: for Hardness (N): 10% w/w PVA and 2.5% w/w borax hydrogel with 0.1 M polyol, n=4; for effect on hardness compared to the hydrogel containing no polyol: hydrogel loaded with 0.1 Molar polyol
Description: Evaluation of the mechanical properties of PVA-borate hydrogels was performed using a TA-XT2 Texture Analyzer (Stable Micro Systems, […], UK) in texture profile analysis (TPA) mode. Formulations were placed in poly(propylene) containers (44 mm diameter×55 mm depth) (Sarstedt©, Wexford, Republic of Ireland) with any air bubbles in the gels removed upon standing at ambient temperature (>6.0 h) prior to investigation. The tubular probe (10.0 mm in diameter and 150.0 mm in length) was compressed twice into each sample to a depth of 15.0 mm at a rate of 10.0 mm s^-1, with a 15.0 s delay between compressions. Four replicate measurements were made in each case at ambient temperature. Hardness and compressibility, which have previously been used to define the mechanical properties of hydrogels were derived from the force-time plots produced by the TPA analysis^30. Those skilled in the art of TPA, will be familiar with production of said force-time plots and derivation of hardness and compressibility data from aforementioned data. Hardness, the force required to achieve a given deformation, was determined by the force maximum of the first positive curve of the force-time plot^30. Compressibility, the work required to deform the product during the first compression of the probe was determined by the area under the first positive curve of the force-time plot^30. Additionally, the effect of the polyols on the concentration of free borate ions within the hydrogel was estimated using changes in the pH of the gel after addition of a defined polyol. Standard hydrogels of 10% w/w PVA and 2.5% borax were produced containing each polyol at a concentration of 0.1 Molar. The pH of each gel was measured upon equilibration, with each measurement performed for four samples (n=4). Similarly, the changes in gel hardness arising from variations in free borate induced by polyol addition were determined using texture profile analysis, as described above. As before, four replicate measurements were made in each case at ambient temperature (n=4).

[3] = Comparison of polyol affinity for borate ions by direct titrimetry; details: polyol added to 100.0 ml of 5% w/v Borax solution; calculated from pH with Equation 3
Description: The following polyols were used in this investigation; maltitol, dulcitol, D-mannitol, D-sorbitol, xylitol, meso-erythritol, 1,2-propanediol, glycerol. Additionally, the affect of propan-2-ol was also investigated. The affinity of each polyol for borate was estimated using direct titrimetry and by analysis of gel characteristics. In the former method, incremental additions (1.0 ml) of a 0.5 M solution of polyol was added to 100.0 ml of 5% w/v Borax solution and the pH recorded. […] 3; 10^(pH-pKa)[H3BO3]0═[B(OH)4^−]f (3) where, [H3BO3]0 is the concentration of boric acid, [B(OH)4^−]f is the concentration of free borate ions and pKa is the pKa of boric acid (derived from the initial pH of the 5% w/v borax solution). […] These assumptions are consistent with work of other researchers^27,28.

[4] = pHp of lidocaine hydrochloride within PVA-Borate hydrogels, derived experimentally
Description: […]. The determination of the pHp in the aqueous environment is determined using the equation (1), whilst the determination of the pHp within the gel environment is derived experimentally. […].

| Compound | pH of hydrogel with 0.1 M polyol [1] | Hardness (N) [2] | % reduction in free borate/0.0005 moles [3] | effect on hardness compared to the hydrogel containing no polyol [2] | pHp (Gel) ([4]; 1% w/v lidocaine HCl in PVA-Borate hydrogel) | pHp (Gel) ([4]; 2% w/v lidocaine HCl in PVA-Borate hydrogel) | pHp (Gel) ([4]; 3% w/v lidocaine HCl in PVA-Borate hydrogel) | pHp (Gel) ([4]; 4% w/v lidocaine HCl in PVA-Borate hydrogel, hydrochloride) | pHp (Gel) ([4]; 4% w/v lidocaine HCl in PVA-Borate hydrogel, listed as lidocaine hydrochloride monohydrate, hydrochloride) |
| --- | --- | --- | --- | --- | --- | --- | --- | --- | --- |
| Malititol | 7.63 ± 0.019 | 2.79 ± 0.14 N | 7.25 ± 1.59% | – | – | – | – | – | – |
| OC[C@@H](O)[C@@H](O)CO [Meso-erythritol] | 8.10 ± 0.01 | 9.01 ± 0.45 N | 4.97 ± 1.17% | – | – | – | – | – | – |
| CC(O)CO (centres unmarked) [1,2-propandiol] | 8.39 ± 0.02 | 14.10 ± 0.5 N | 2.08 ± 0.78% | no affect on the hardness of the hydrogel | – | – | – | – | – |
| OCC(O)CO [Glycerol] | 8.17 +/− 0.022 | – | 3.36 ± 1.34% | – | – | – | – | – | – |
| OC[C@@H](O)[C@H](O)[C@H](O)[C@@H](O)CO [Dulitol] | 7.67 ± 0.015 | 3.87 ± 0.38 N | 7.46 ± 1.41% | – | – | – | – | – | – |
| OC[C@@H](O)[C@H](O)[C@@H](O)CO [Xylitol] | 7.95 ± 0.038 | 5.18 ± 0.31 N | 4.97 ± 1.21% | – | – | – | – | – | – |
| CCN(CC)CC(=O)Nc1c(C)cccc1C [Lidocaine HCl, lidocaine hydrochloride] | – | – | – | – | ≧8.15 | ≧7.75 | ≧7.45 | ≧7.26 | > 7.26 |
| CC(C)O [Propan-2-ol] | 8.393 +/− 0.012 | – | 0.51 ± 1.09% | no affect on the hardness of the hydrogel | – | – | – | – | – |
| OC[C@@H](O)[C@@H](O)[C@H](O)[C@@H](O)CO [D-sorbitol] | 7.79 ± 0.02 | 4.37 ± 0.31 N | 6.87 ± 1.25% | – | – | – | – | – | – |
| OC[C@@H](O)[C@@H](O)[C@H](O)[C@H](O)CO [D-mannitol] | 7.74 ± 0.023 | 4.07 ± 0.25 N | 7.47 ± 1.10% | – | – | – | – | – | – |
